In general, EC50 refers to the concentration at which the effect is half-maximal.

Data set [1] is described as follows: in vitro. Conditions: African green monkey; for CC50 at 4 days: uninfected quiescent Vero-B cells.
In data set [2] the test system is DENV-3 strain H87 prototype. Nature of the data set: Antiviral activity against DENV-3 in Vero-B cells (viral RNA load by RT-qPCR). The format is cell-based, Dengue virus. The note with it: Dengue virus, DENV3, Vero B.
The test system of data set [3] is YFV-17D. The experiment in a line: microbe, parasite or virus in culture. In kind it is cell-based. The note with it: Yellow fever virus, Vero B.
In data set [4] the test system is DENV-1 Djibouti strain D1/H/IMTSSA/98/606. The experiment in a line: Antiviral activity against DENV-1 in Vero-B cells (viral RNA load by RT-qPCR). The format is cell-based, Dengue virus. The note with it: Dengue virus, DENV1, Vero B.
Data set [5] relates to DENV-2 NGC. Nature of the data set: Antiviral activity against DENV-2 NGC in Vero-B cells (viral RNA load by RT-qPCR). The note with it: Dengue virus, DENV2, Vero B, DENV-2 in Vero-B cells; inhibition of viral RNA replication by 50% (Table 3). The format is cell-based, Dengue virus.
The subject of data set [6] is DENV-4 strain Dak HD 34 460. The experiment in a line: Antiviral activity against DENV-4 in Vero-B cells (viral RNA load by RT-qPCR). The format is cell-based, Dengue virus. Conditions: Dengue virus, DENV4, Vero B. (Quantitative PCR measures a nucleic acid by following its amplification.)
Data set [7] relates to uninfected quiescent Vero-B cells. Nature of the data set: Cytotoxic assay in uninfected quiescent Vero-B cells (MTS/PMS). Conditions: 4 days (Table 3).
Data set [8] deals with DENV-2 NGC. Nature of the data set: Antiviral activity against DENV-2 NGC in A549 cells (viral RNA load by RT-qPCR). The format is cell-based. The note with it: Dengue virus, DENV2; DENV-2 in A549 cells (Table 6).
Data set [9] in a line: Cytotoxicity in A549 cells (MTS/PMS). In kind it is cell-based. The note with it: human; A549 cells (Table 6). As to the method:
A similar protocol was used to assess cytotoxicity in A549 cells with the difference that cells were seeded at 2×10^4 cells/well.

Data set [10] deals with DENV-2 strain D2Y98P. Nature of the data set: Dengue mortality model in AG129 mice. The note with it: 60 mg/kg/day, sc, twice daily, 17 consecutive days; DENV-2 D2Y98P infected AG129 mice; p: 0.0017; FIG. 1. In kind it is in vivo.

Take `COc1cc(NC(C(=O)c2c(C)[nH]c3ccccc23)c2ccccc2)cc(OC)c1` (stereo not shown) [CPD-012]: in data set [1], the CC50 was determined as 12000 nM. Besides, the CC50 at 4 days in [1] was found to be 14000 nM. Also, the EC50 in data set [2] was < 500 nM; in [3], < 500 nM; in [4] it was 4420 nM; in [5], 50 nM.

In the case of `COc1cc(NC(C(=O)c2c[nH]c3ccccc23)c2ccccc2)cc(OC)c1` (stereo not shown) [CPD-002], the EC50 in data set [6] is 27200 nM; in [2] it was < 500 nM; in data set [3], 2810 nM; in data set [4], 540 nM; in data set [5], 10 nM. For the same compound, the CC50 was determined as 25000 nM in [1] and 16000 nM in data set [7].

On to `COc1cccc(NC(C(=O)c2c[nH]c3ccccc23)c2nc3ccccc3o2)c1` (stereo not shown) [CPD-328], for which the EC50 in data set [8] is 6 nM; in [6], 2840 nM; in data set [2], 130 nM; in [4], 200 nM; in data set [5], 10 nM. In [9], this compound had a CC50 at 4 days of 12000 nM. This compound showed a CC50 in [7] of 13000 nM.

With `COc1cc(NC(C(=O)c2c[nH]c3ccccc23)c2cccnc2)cc(OC)c1` (stereo not shown) [CPD-236], the EC50 came out at 19 nM in [8]; 2450 nM in [6]; 310 nM in [2]; 170 nM in data set [4]; 20 nM in data set [5]. The same compound came in with a CC50 at 4 days in data set [9] of 65000 nM. Also, in data set [7], the CC50 was found to be 69000 nM.

Regarding `COc1cccc(NC(C(=O)c2c[nH]c3ccccc23)c2cccnc2)c1` (stereo not shown) [CPD-019], the EC50 is 8380 nM in data set [6]; 2180 nM in data set [2]; 6180 nM in data set [3]; 670 nM in data set [4]; 140 nM in [5]. In addition, the CC50 in data set [1] was 56000 nM; in data set [7], 71000 nM.

Take `COc1cccc(NC(C(=O)c2csc3ccccc23)c2ccccc2)c1` (stereo not shown) [CPD-193]: the EC50 was 5440 nM in data set [6]; 18900 nM in [2]; < 500 nM in data set [3]; 23700 nM in [4]; 720 nM in data set [5]. Moreover, the CC50 in [1] is > 133000 nM. Moreover, the CC50 at 4 days in [1] was > 133000 nM.

With `COc1cc(NC(C(=O)c2c[nH]c3cc(Cl)ccc23)c2ccccc2)cc(OC)c1` (stereo not shown) [CPD-013], the EC50 in data set [6] was 1810 nM; in data set [2] it was < 500 nM; in data set [3], 520 nM; in data set [4], 90 nM; in data set [5], 2 nM. In [1], this compound came in with a CC50 of 11000 nM. The CC50 at 4 days in data set [1] was found to be 9000 nM.

In the case of `COc1ccc(NC(C(=O)c2c[nH]c3ccccc23)c2ccccc2)cc1OC` (stereo not shown) [CPD-001], the EC50 in data set [6] was found to be 4450 nM; in data set [2], 29400 nM; in data set [3], 9160 nM; in data set [4], 1600 nM; in data set [5] it was 80 nM. In addition, the results for the CC50 in [1] and in [7] were 43000 nM and 29000 nM, respectively.

As for `COc1cccc(NC(C(=O)c2c[nH]c3ccccc23)c2ccccc2)c1` (stereo not shown) [CPD-010], the EC50 in data set [8] was 66 nM; in data set [6], 5430 nM; in data set [2] it was 3540 nM; in data set [3], < 600 nM; in [4], 1290 nM; in [5], 70 nM. Moreover, the CC50 in data set [1] was 12000 nM; in data set [7] it was 18000 nM. This compound also had a CC50 at 4 days in data set [9] of 16000 nM.

For `COc1cncc(NC(C(=O)c2c[nH]c3cc(F)ccc23)c2ccc(OC)nc2)c1` (stereo not shown) [CPD-242], the EC50 turned out to be 10 nM in data set [8]; 7870 nM in data set [6]; 570 nM in data set [2]; 400 nM in data set [4]; 40 nM in [5]. Besides, the CC50 at 4 days is 59000 nM in data set [1] and 47000 nM in [9]. In [10], the “delay in virus-induced morbidity (day of euthanasia)” value is “highly significant delay”.

As to `COc1cc(NC(C(=O)c2c[nH]c3ccc(F)cc23)c2ccccc2)cc(OC)c1` (stereo not shown) [CPD-131], the EC50 in [8] is 8 nM; in [6] it was 4770 nM; in [2], 680 nM; in data set [4], 250 nM; in data set [5] it was 10 nM. The compound also displayed a CC50 at 4 days in data set [9] of 11000 nM. In data set [7], this compound displayed a CC50 of 13000 nM.
